# Measurements taken from PMC7244308 (Science Advances, 2020).
# Like-named read-outs stand apart in the source and are kept apart here.
# Legend:
# PFO = PFO (Clostridium perfringens, UniProt P0C2E9); assay: biochemical; assay type: binding
# ILY = ILY (Streptococcus intermedius, UniProt Q9LCB8); assay: biochemical; assay type: binding
# SLO [1] = target: T1, SLO (Streptococcus pyogenes serotype M1, UniProt P0C0I3); assay: biochemical; assay type: binding
# SLY = SLY (Streptococcus suis, UniProt Q55996); assay type: binding
# SLY D4 = SLY D4 (Streptococcus suis, UniProt Q55996); assay type: binding
# Ply = Ply (Streptococcus pneumoniae, UniProt Q7ZAK5); assay: biochemical; assay type: binding
# [2] = target: recombinant human I-domain (Homo sapiens, UniProt P11215); assay type: binding
# SLO [3] = target: T1, SLO; assay type: cell-based
# LLO = LLO (Listeria monocytogenes serovar 1/2a, UniProt P13128); assay type: binding
# Chain of LLO (P13128 25-529 limits assumed): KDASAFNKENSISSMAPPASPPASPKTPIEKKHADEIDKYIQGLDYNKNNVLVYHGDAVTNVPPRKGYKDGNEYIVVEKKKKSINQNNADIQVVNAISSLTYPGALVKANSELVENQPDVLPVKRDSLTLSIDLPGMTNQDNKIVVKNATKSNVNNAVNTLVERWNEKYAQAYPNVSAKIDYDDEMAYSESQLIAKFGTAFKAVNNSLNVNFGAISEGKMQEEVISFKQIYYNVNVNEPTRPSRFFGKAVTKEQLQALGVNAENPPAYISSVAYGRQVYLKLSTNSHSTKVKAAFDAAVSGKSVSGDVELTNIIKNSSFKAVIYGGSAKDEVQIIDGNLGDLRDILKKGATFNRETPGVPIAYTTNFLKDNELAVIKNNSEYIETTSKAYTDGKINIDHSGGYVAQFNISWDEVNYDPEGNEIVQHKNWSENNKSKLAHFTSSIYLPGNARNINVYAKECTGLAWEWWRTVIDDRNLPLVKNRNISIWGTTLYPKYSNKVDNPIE
# T1 sequence (P0C0I3 34-571 limits assumed): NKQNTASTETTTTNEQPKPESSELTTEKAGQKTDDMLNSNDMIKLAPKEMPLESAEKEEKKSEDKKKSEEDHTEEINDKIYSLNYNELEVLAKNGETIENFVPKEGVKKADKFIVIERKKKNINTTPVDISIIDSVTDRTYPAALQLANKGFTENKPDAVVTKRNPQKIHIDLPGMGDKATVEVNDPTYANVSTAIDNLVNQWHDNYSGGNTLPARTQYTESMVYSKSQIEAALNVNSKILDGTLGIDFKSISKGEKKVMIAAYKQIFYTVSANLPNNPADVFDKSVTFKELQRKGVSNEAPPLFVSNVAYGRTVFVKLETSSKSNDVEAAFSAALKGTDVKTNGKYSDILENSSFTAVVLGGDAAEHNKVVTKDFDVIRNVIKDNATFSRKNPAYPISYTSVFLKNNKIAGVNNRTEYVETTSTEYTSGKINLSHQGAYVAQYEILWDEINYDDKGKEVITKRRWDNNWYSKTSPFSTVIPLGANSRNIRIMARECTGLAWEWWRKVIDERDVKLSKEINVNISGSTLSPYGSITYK
# Chain of Ply (Q7ZAK5 whole entry, looked up): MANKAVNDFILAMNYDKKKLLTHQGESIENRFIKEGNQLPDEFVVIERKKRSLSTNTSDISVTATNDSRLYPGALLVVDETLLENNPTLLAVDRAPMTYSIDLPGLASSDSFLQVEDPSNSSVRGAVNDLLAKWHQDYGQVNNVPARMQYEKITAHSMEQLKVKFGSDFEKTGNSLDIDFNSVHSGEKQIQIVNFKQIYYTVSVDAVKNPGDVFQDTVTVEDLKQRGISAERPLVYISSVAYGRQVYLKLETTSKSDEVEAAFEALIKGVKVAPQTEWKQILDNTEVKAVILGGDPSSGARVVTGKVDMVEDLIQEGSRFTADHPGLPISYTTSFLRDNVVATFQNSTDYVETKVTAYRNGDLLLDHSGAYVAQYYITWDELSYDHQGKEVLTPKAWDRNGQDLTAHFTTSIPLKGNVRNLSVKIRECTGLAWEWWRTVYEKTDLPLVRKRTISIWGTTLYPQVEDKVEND
# Chain of PFO (P0C2E9 29-500 limits assumed): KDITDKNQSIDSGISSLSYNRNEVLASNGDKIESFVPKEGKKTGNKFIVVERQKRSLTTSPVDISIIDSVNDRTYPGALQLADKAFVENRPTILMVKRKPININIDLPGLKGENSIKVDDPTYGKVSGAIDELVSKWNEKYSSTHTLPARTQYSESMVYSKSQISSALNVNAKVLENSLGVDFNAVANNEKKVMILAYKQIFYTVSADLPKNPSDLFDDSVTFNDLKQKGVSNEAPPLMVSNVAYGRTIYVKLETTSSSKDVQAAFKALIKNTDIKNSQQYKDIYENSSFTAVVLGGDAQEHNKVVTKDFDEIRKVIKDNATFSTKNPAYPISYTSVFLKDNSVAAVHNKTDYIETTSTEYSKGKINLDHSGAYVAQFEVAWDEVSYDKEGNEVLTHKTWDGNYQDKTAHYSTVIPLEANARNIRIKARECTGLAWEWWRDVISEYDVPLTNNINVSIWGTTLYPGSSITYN
# Chain of recombinant human I-domain (P11215 150-328): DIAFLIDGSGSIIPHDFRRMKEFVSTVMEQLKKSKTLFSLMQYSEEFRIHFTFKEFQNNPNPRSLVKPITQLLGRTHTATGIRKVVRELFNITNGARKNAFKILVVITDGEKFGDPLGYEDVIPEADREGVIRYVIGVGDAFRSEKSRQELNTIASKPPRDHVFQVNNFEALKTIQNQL
compound,measurement,setting,value
"CC(=O)N[C@H]1[C@H](O[C@H]2[C@@H](O)[C@@H](CO)O[C@@H](O[C@H]3[C@H](O)[C@@H](O)C(O)O[C@@H]3CO)[C@@H]2O)O[C@H](CO)[C@@H](O[C@@H]2O[C@H](CO)[C@H](O)[C@H](O)[C@H]2O)[C@@H]1O (mixture of isomers) [LNnT, lacto-N-neotetraose]",Kd,PFO,2800 nM
same,Kd,ILY,4900 nM
same,Kd,SLO [1],0.93 nM
"C[C@@H]1O[C@@H](O[C@H]2C(O)O[C@H](CO)[C@H](O)[C@@H]2O)[C@@H](O)[C@H](O)[C@@H]1O (stereo partly shown) [BGH di, blood group H antigen disaccharide]",Kd,SLY,19000 nM
same,Kd,SLY D4,26000 nM
same,Kd,SLO [1],603 nM
O=C[C@H](O)[C@@H](O)[C@H](O[C@@H]1O[C@H](CO)[C@@H](O)[C@H](O)[C@H]1O)[C@H](O)CO [Cellobiose],Kd,PFO; KD,34000 nM
CC(C)CCC[C@@H](C)[C@H]1CC[C@H]2[C@@H]3CC=C4C[C@@H](O)CC[C@]4(C)[C@H]3CC[C@]12C [Cholesterol],Kd,PFO; KD,296 nM
same,Kd,Ply; KD,1000 nM
same,Kd,SLO [1]; KD,189 nM
CC(=O)[C@H]1CC[C@H]2[C@@H]3CC=C4C[C@@H](O)CC[C@]4(C)[C@H]3CC[C@]12C [pregnenolone],Kd,Ply,~0.4 nM
same,binding in SPR drug library screen,Ply,binds
same,binding in SPR drug library screen,SLO [1],binds
"CC(=O)N[C@H]1[C@H]([C@H](O)[C@H](O)CO)O[C@@](O[C@H]2[C@@H](O)[C@@H](CO)O[C@@H](O[C@@H]([C@H](O[C@@H]3O[C@@H](C)[C@@H](O)[C@@H](O)[C@@H]3O)[C@H](C=O)NC(C)=O)[C@H](O)CO)[C@@H]2O)(C(=O)O)C[C@@H]1O [sLeX, sialyl-Lewis X]",Kd,PFO; KD,3900 nM
same,Kd,ILY; KD,2800 nM
same,Kd,Ply; KD,1300 nM
same,Kd,SLO [1]; KD,3100 nM
"Ply: pneumolysin, CDC toxin from Streptococcus pneumoniae, recombinant His-tagged",Kd,[2],22.3 nM
pregnenolone sulfate (sodium salt) [PS],effect on SLO hemolytic activity,SLO [3],inhibit
same,competition with cholesterol (competitive SPR),LLO,compete directly
same,competition with cholesterol (competitive SPR),Ply,compete directly
same,competition with cholesterol (competitive SPR),SLO [1],compete directly
